In patent US20150087722A1, “TREATMENT FOR BREAST TUMOR CELL METASTASIS” (China Medical University, priority 2012, published 2015):

Key:
[1] = test system: ROS content in breast tumor cells MDA-MB-453; assay: reactive oxygen species method; type: cell-based, human; conditions: 40 μM
Protocol: In FIG. 12, the reactive oxygen species method was used to detect the effect of increased treatment doses of the compound II on the ROS content in breast tumor cells, and a photograph was taken at a 200× field under the fluorescence microscope. In the intracellular reactive oxygen species method, the cells were planted in a 24-well plate (5×10^4 cells/well). The next day after the cells were adhered to the wall, the cells were cultured in a serum free DMEM culture medium at an atmosphere of 5% CO2 in an incubator at 37° C. for 12 h. The compound II was added into the 1% FBS-DMEM culture medium, and the cells were cultured in the culture medium for 2 h. The cells were then washed with PBS. 100 ng/mL LPS was added to react with the cells, and then the cells were washed with PBS. […] The absorbance was measured by a fluorescence spectrometer, where the excitation wavelength was set as 485±20 nm, and the […] was set as 530±25 nm. […] Thus in the following the cells were treated with 40 μM the compound II and then the ROS content of cells was detected. […] FIG. 23 is a quantitative diagram showing the effect of increasing treatment time on the ROS content of breast tumor cells when the reactive oxygen species method was performed to detect the breast tumor cells treated with 40 μM the compound II. […]

[2] = test system: MMP-9, MMP2 and uPA in breast tumor cells MDA-MB-231; assay: Zymography enzyme activity assay; type: cell-based, human; conditions: MDA-MB-231, with dose increasing, FIG. 8B
Source text: Referring to FIG. 8B, the Zymography enzyme activity assay was used to detect effect of the compound II in different doses on enzyme activities of the MMP-9, MMP2 and uPA in the breast tumor cells MDA-MB-231. Moreover, referring to FIG. 9, the Zymography enzyme activity assay was used to detect effect of the compound I on enzyme activities of the MMP-9 and MMP2 in the human normal breast cells MCF-10A stimulated by TNF-α/TGF-β. In the Zymography enzyme activity assay, the cells (1×10^6) were planted in a 6-well plate. The next day after the cells were adhered to the wall, the cells were cultured in a serum free DMEM culture medium at an atmosphere of 5% CO2 in an incubator at 37° C. for 24 h. The compound II in different doses were added into the DMEM culture medium. In other test groups, the compound I was added, TNF-α/TGF-β were added or the compound I and TNF-α/TGF-β were added into the DMEM culture medium, wherein the concentration of compound I and TNF-α/TGF-β were 2 mM and 10 ng/ml, respectively. The cells were cultured in the culture medium for 2 h and then washed with PBS. The cell culture medium was putted into a microcentrifuge tube and centrifuged for 10 min at 1500 rpm. The supernatant was taken to perform a protein gel electrophoresis (SDS-PAGE), so as to separate the proteins. […]

[3] = test system: Normal Keratinocyte Cell (HaCaT cell strain); assay: MTT cell viability assay; type: cell-based; conditions: Homo sapiens
[4] = test system: cells stimulated by 10 ng/mL TNF-α; assay: wound scratching assay of cells stimulated by TNF-α; type: cell-based; conditions: 10 and 20 μM, 24 h
Protocol: In the wound scratching assay for observing cell migration, the cells MDA-MB-231 (3×10^5) were planted in a 12-well plate, and the next day the cells were washed with PBS twice. The original culture medium then was replaced by 1% FBS cell culture medium. The next day a space was scratched at the bottom of the well. The cell culture medium was removed and the cells were washed with PBS twice. 1% FBS cell culture medium and the compound II of different concentrations were added and photographs were taken after 0, 12, 24 and 36 h so as to observe migration of cells. After the reaction, the cells were fixed for 30 min using 75% ice alcohol. After the alcohol was completely volatilized, the cells were stained with Giemsa Stain. The migration number of cells was counted in three random fields (200×) under the microscope (Lin et al., 2008). […] After the breast tumor cells were treated for 0, 12, 24 and 36 h, the quantitative result of effect of the compound II on metastasis of breast tumor cells MDA-MD-231 was observed, and the data results were represented by mean±SD values, where n=3. FIG. 19 illustrates the effect of the compound II in different doses on migration of cells stimulated by 10 ng/mL TNF-α and detected by the wound scratching assay, where the cells were observed under a microscope. […]

Compound: COC1=C(OC)C(=O)C(C)=C(C)C1=O [compound II]
- content of oxygen species compared with the control group [1]: higher
- enzyme activities of MMP-2, MMP-9 and uPA [2]: decreased
- IC50 [3]: 35.2 µM
- cell migration [4]: not obvious
